{
  "source": "paper PMC9374667",
  "about": "(Communications Biology, 2022)",
  "type_in_all_cases": "in vivo",
  "key": {"db/db mice [1]": {"test_system": "db/db mice", "assay": "Fat depots weight (BAT, iWAT, eWAT; percentage of body weight)", "conditions": "db/db mice; for Fat depots weight / body weight: individual mice", "protocol": "The lean wild type control and the db/db control mice were given equal vehicle volume (0.5% CMC-Na solution). All mice were monitored for food intake, body weight, and fasting blood glucose during the 35-day trial. Glucose tolerance test (GTT) and insulin resistance test (ITT) were performed at 4 and 5 weeks of treatment, respectively. Metabolic analysis was performed at 5 weeks of treatment. At the end of the study, blood samples were taken through the retroorbital venous sinus of mice, fat depots (brown fat, inguinal subcutaneous fat, epididymal fat, perirenal fat and mesenteric fat depot) were dissected, weighed, and immediately frozen in liquid nitrogen and stored at −80 °C until required. Weight of fat depots are expressed in percentage (fat depots weight /bodyweight * 100%)."}, "db/db mice [2]": {"test_system": "db/db mice", "assay": "Serum CHO, TG, FFA, LDL-C, HDL-C and ADPN in the fasted state", "conditions": "db/db mice; for ADPN (Figure 4j) / FFA (Figure 4g) / HDL-C (Figure 4i) / LDL-C (Figure 4h): serum, individual mice 1-6; for Serum CHO / Serum TG: fasted state, individual mice", "protocol": "The serum was collected by centrifugation at 3000 × g at 4 °C for 15 min and stored at −80 °C until analysis. TG, TC, LDL-C, HDL-C, and FFA were routinely tested on a Chemray 240 automatic biochemical analyzer (Chemray 240, Shenzhen, China). Serum levels of mouse adiponectin, interleukin6 (IL-6), tumor necrosis factor-α (TNF-α) were measured using commercial enzyme-linked immunosorbent assay (ELISA) kits (Nanjing Jiancheng Bioengineering Institute, Nanjing, China) and according to the manufacturer’s instructions. The levels of IL-6, TNF-α in 3T3-L1 adipocyte culture supernatant were also detected by ELISA."}, "db/db mice [3]": {"test_system": "db/db mice", "assay": "Fasting serum insulin levels (ELISA)", "conditions": "db/db mice; for insulin level (Figure 5b): fasting serum, individual mice 1-6; for Fasting serum insulin levels: 35 days of treatment, vs vehicle", "protocol": "(§1) Mice were fasted for 4 h for insulin resistance test and intraperitoneally injected with 1 unit/kg of insulin. Blood glucose levels were measured from the tail vein blood at 0, 15, 30, 45, 60, 90, and 120 min after injection. Plasma insulin levels were measured using an ultrasensitive mouse insulin ELISA kit (Nanjing Jiancheng Bioengineering Institute, Nanjing, China)."}, "db/db mice [4]": {"test_system": "db/db mice", "assay": "Insulin tolerance test (ITT), AUC and initial slope", "conditions": "for blood glucose level: individual mice, in mmol/L (unit assumed); for Initial Slope: individual animals (Figure S10a)", "protocol": "as §1"}, "[5]": {"conditions": "BJ 150mg/kg, individual mice 1-10, in %"}, "[6]": {"conditions": "vs vehicle, BJ 75 and 150 mg/kg, BBR 150 mg/kg, Ibu 150 mg/kg"}},
  "note": "Where “and” joins values, the source holds several entries; their conditions need not be identical. Identical values can stand only once.",
  "data": [
    {"smiles": "CC(C)Cc1ccc(C(C)C(=O)[O-])cc1.COc1ccc2cc3[n+](cc2c1OC)CCc1cc2c(cc1-3)OCO2.O.O.O.O", "note": "[BJ, berberine-ibuprofen]", "values": [
      {"measurement": "eWAT fat depot weight (Figure 4c)", "setting": "db/db mice [1]; [5]", "result": "2.6032 and 2.4699 and 2.5757 and 2.9739 and 2.5582 and 2.4535 and 2.305 and 2.1485 and 2.4952 and 2.1171"},
      {"measurement": "iWAT fat depot weight (Figure 4c)", "setting": "db/db mice [1]; [5]", "result": "2.0087 and 2.2014 and 2.1848 and 3.5434 and 3.664 and 1.962 and 0.513 and 2.1562 and 2.8234 and 1.567"},
      {"measurement": "Fat depots weight / body weight", "setting": "db/db mice [1]; 75 mg/kg for 35 days, 75 mg/kg", "result": "17.3087% and 20.1428% and 17.1651% and 21.4638% and 17.3569% and 14.6768% and 23.7077% and 20.828% and 19.5629% and 16.4679%"},
      {"measurement": "Fat depots weight / body weight", "setting": "db/db mice [1]; 150 mg/kg for 35 days, 150 mg/kg", "result": "11.5274% and 15.536% and 18.4944% and 12.6638% and 16.2402% and 14.3781% and 12.8992% and 19.8596% and 21.4381% and 12.5947%"},
      {"measurement": "Fat depots weight compared with vehicle", "setting": "db/db mice [1]; BJ 75 and 150 mg/kg, BBR 150 mg/kg, Ibu 150 mg/kg", "result": "lower fat depots weight than vehicle-treated db/db mice"},
      {"measurement": "ADPN (Figure 4j)", "setting": "db/db mice [2]; BJ 75mg/kg", "result": "460 and 566.78 and 483.17 and 443.62 and 491.01 and 609.29"},
      {"measurement": "FFA (Figure 4g)", "setting": "db/db mice [2]; BJ 75mg/kg", "result": "641.9 and 692.8 and 709.3 and 711.6 and 731.5 and 667"},
      {"measurement": "HDL-C (Figure 4i)", "setting": "db/db mice [2]; BJ 75mg/kg", "result": "2.6 and 2.7 and 3.1 and 2.1 and 3 and 2.4"},
      {"measurement": "LDL-C (Figure 4h)", "setting": "db/db mice [2]; BJ 75mg/kg", "result": "4.35 and 5.54 and 4.19 and 5.48 and 5.18 and 4.51"},
      {"measurement": "ADPN (Figure 4j)", "setting": "db/db mice [2]; BJ 150mg/kg", "result": "563.3 and 624.62 and 712.07 and 705.63 and 665.38 and 609.46"},
      {"measurement": "FFA (Figure 4g)", "setting": "db/db mice [2]; BJ 150mg/kg", "result": "697.7 and 666.2 and 614.5 and 627 and 678.9 and 614.6"},
      {"measurement": "HDL-C (Figure 4i)", "setting": "db/db mice [2]; BJ 150mg/kg", "result": "3.5 and 2.9 and 2.4 and 2.8 and 2.7 and 3.1"},
      {"measurement": "LDL-C (Figure 4h)", "setting": "db/db mice [2]; BJ 150mg/kg", "result": "3.35 and 4.57 and 3.32 and 3.26 and 3.43 and 3.59"},
      {"measurement": "Serum CHO", "setting": "db/db mice [2]; 75 mg/kg", "result": "4.2 mmol/L and 4.3 mmol/L and 4.6 mmol/L and 3.4 mmol/L and 6.1 mmol/L and 5.3 mmol/L"},
      {"measurement": "Serum TG", "setting": "db/db mice [2]; 75 mg/kg", "result": "0.92 mmol/L and 1.17 mmol/L and 1.79 mmol/L and 1.19 mmol/L and 1.62 mmol/L and 1.33 mmol/L"},
      {"measurement": "Serum CHO", "setting": "db/db mice [2]; 150 mg/kg", "result": "3.2 mmol/L and 4.9 mmol/L and 4.5 mmol/L and 4.2 mmol/L and 3.7 mmol/L and 4.6 mmol/L"},
      {"measurement": "Serum TG", "setting": "db/db mice [2]; 150 mg/kg", "result": "1.18 mmol/L and 1.01 mmol/L and 1.29 mmol/L and 1.1 mmol/L and 1.5 mmol/L"},
      {"measurement": "Serum levels of CHO, TG, FFA and LDL-C", "setting": "db/db mice [2]; [6]", "result": "decreased"},
      {"measurement": "Serum levels of HDL-C and adiponectin (ADPN)", "setting": "db/db mice [2]; [6]", "result": "increased"},
      {"measurement": "insulin level (Figure 5b)", "setting": "db/db mice [3]; BJ 75mg/kg", "result": "10.1686 and 14.5706 and 11.3611 and 13.6498 and 12.9045 and 14.3689"},
      {"measurement": "insulin level (Figure 5b)", "setting": "db/db mice [3]; BJ 150mg/kg", "result": "10.5413 and 10.778 and 14.6188 and 12.4266 and 11.7294 and 13.6718"},
      {"measurement": "Fasting serum insulin levels", "setting": "db/db mice [3]; 75 mg/kg", "result": "did not produce significant effects"},
      {"measurement": "Fasting serum insulin levels", "setting": "db/db mice [3]; 150 mg/kg", "result": "significantly reduced the fasting serum insulin levels"},
      {"measurement": "blood glucose level", "setting": "db/db mice [4]; BJ 75mg/kg, time column 1 of 7 (time not printed)", "result": "18.5 and 19.1 and 12.0 and 14.2 and 11.0 and 11.7 and 16.7 and 19.2 and 21.8 and 15.9"},
      {"measurement": "blood glucose level", "setting": "db/db mice [4]; BJ 75mg/kg, time column 2 of 7 (time not given)", "result": "19.2 and 21.2 and 12.1 and 14.6 and 8.3 and 11.4 and 18.6 and 22.2 and 23.5 and 18.5"},
      {"measurement": "blood glucose level", "setting": "db/db mice [4]; BJ 75mg/kg, time column 3 of 7 (time not given)", "result": "18.3 and 19.0 and 10.1 and 10.5 and 8.8 and 7.5 and 13.7 and 19.3 and 20.1 and 11.6"},
      {"measurement": "blood glucose level", "setting": "db/db mice [4]; BJ 75mg/kg, time column 4 of 7 (time not given)", "result": "13.0 and 15.2 and 7.6 and 10.0 and 6.8 and 7.5 and 12.1 and 16.3 and 20.8 and 11.0"},
      {"measurement": "blood glucose level", "setting": "db/db mice [4]; BJ 75mg/kg, time column 5 of 7 (time not given)", "result": "12.4 and 16.1 and 8.4 and 8.8 and 5.9 and 7.1 and 11.2 and 16.2 and 16.3 and 10.1"},
      {"measurement": "blood glucose level", "setting": "db/db mice [4]; BJ 75mg/kg, time column 6 of 7 (time not given)", "result": "10.2 and 13.2 and 6.9 and 8.2 and 5.3 and 6.4 and 9.7 and 13.6 and 14.6 and 9.4"},
      {"measurement": "blood glucose level", "setting": "db/db mice [4]; BJ 75mg/kg, time column 7 of 7 (time not printed)", "result": "12.1 and 12.2 and 9.0 and 9.8 and 4.9 and 5.5 and 10.8 and 12.3 and 14.9 and 10.0"},
      {"measurement": "blood glucose level", "setting": "db/db mice [4]; BJ 150mg/kg, time column 1 of 7 (time not printed)", "result": "18.0 and 17.8 and 9.3 and 14.4 and 11.4"},
      {"measurement": "blood glucose level", "setting": "db/db mice [4]; BJ 150mg/kg, time column 2 of 7 (time not given)", "result": "13.2 and 15.0 and 7.7 and 11.7 and 11.6"},
      {"measurement": "blood glucose level", "setting": "db/db mice [4]; BJ 150mg/kg, time column 3 of 7 (time not given)", "result": "7.7 and 7.0 and 1.7 and 6.1"},
      {"measurement": "blood glucose level", "setting": "db/db mice [4]; BJ 150mg/kg, time column 4 of 7 (time not given)", "result": "7.2 and 6.7 and 1.5 and 6.3"},
      {"measurement": "blood glucose level", "setting": "db/db mice [4]; BJ 150mg/kg, time column 5 of 7 (time not given)", "result": "9.0 and 8.2 and 3.3 and 5.2"},
      {"measurement": "blood glucose level", "setting": "db/db mice [4]; BJ 150mg/kg, time column 6 of 7 (time not given)", "result": "8.2 and 7.6 and 2.8 and 7.0"},
      {"measurement": "blood glucose level", "setting": "db/db mice [4]; BJ 150mg/kg, time column 7 of 7 (time not printed)", "result": "10.4 and 7.7 and 4.0 and 7.3"},
      {"measurement": "Insulin sensitivity (ITT)", "setting": "db/db mice [4]; db/db mice, 150 mg/kg, week 5", "result": "more sensitive to insulin stimulation"},
      {"measurement": "Initial Slope", "setting": "db/db mice [4]; db/db mice, BJ 75mg/kg", "result": "-0.0733 mmol/L/min and -0.14 mmol/L/min and -0.1 mmol/L/min and 0.0033 mmol/L/min and -0.0567 mmol/L/min and -0.1433 mmol/L/min and -0.0067 mmol/L/min and -0.0033 mmol/L/min and -0.0633 mmol/L/min and -0.1233 mmol/L/min"},
      {"measurement": "Initial Slope", "setting": "db/db mice [4]; db/db mice, BJ 150mg/kg", "result": "-0.1767 mmol/L/min and -0.22 mmol/L/min and -0.15 mmol/L/min and -0.28 mmol/L/min and -0.3433 mmol/L/min and -0.36 mmol/L/min and -0.2533 mmol/L/min and -0.2467 mmol/L/min"}
    ]}
  ]
}
